The values that follow come from ChEMBL document CHEMBL4651402, “Screening of ~5500 FDA-approved drugs and clinical candidates for anti-SARS-CoV-2 activity” (2021).

The subject of this assay is SARS-CoV-2. Kind of assay: microbe, parasite or virus in culture. The conditions noted are these: Severe acute respiratory syndrome coronavirus 2, Vero C1008, 48 h.

Bounds are passed on as bounds.

Consider `CO[C@@H](C(=O)N1Cc2[nH]nc(NC(=O)c3ccc(N4CCN(C)CC4)cc3)c2C1)c1ccccc1` [DANUSERTIB], for which the IC50 is over 20 µM. Where the note is “read-out: pIC50 (converted)”, the IC50 is over 20 µM.
In turn, `OC1CCCCC1N1CCC(c2ccccc2)CC1` (stereo unspecified) yielded an IC50 of over 20 µM. The IC50 (read-out: pIC50 (converted)) is over 20 µM.
In the case of `CO[C@H]1/C=C\O[C@@]2(C)Oc3c(C)c(O)c4c(=O)c(c5oc6cc(N7CCN(CC(C)C)CC7)cc(O)c6nc-5c4c3C2=O)NC(=O)/C(C)=C\C=C/[C@H](C)[C@H](O)[C@@H](C)[C@@H](O)[C@@H](C)[C@H](OC(C)=O)[C@@H]1C`, the IC50 was over 20 µM. Under “read-out: pIC50 (converted)”, the IC50 is over 20 µM.
`CC(C(=O)O)c1ccc2oc(-c3ccc(Cl)cc3)nc2c1` (stereo unspecified) [BENOXAPROFEN] showed an IC50 of over 20 µM. Moreover, the IC50 (read-out: pIC50 (converted)) is over 20 µM.
Compound `O=C(O)CCNC(=O)c1ccccc1` [BETAMIPRON] registered an IC50 of over 20 µM. Further, for the setting “read-out: pIC50 (converted)”, the IC50 is over 20 µM.
As to `O=c1cc(-c2ccccc2)oc2cc(O)ccc12` [7-HYDROXYFLAVONE], the IC50 was over 20 µM. Further, the IC50 (read-out: pIC50 (converted)) was over 20 µM.
`Nc1cc2[nH]cnc2c(=O)[nH]1` [DEZAGUANINE] came in with an IC50 of over 20 µM. For the same compound, under “read-out: pIC50 (converted)”, the IC50 was over 20 µM.
As for `CC(C)NCC(O)COc1ccc(CCOCC2CC2)cc1` (stereo unspecified) [BETAXOLOL], the IC50 is over 20 µM. In addition, the IC50 (read-out: pIC50 (converted)) was over 20 µM.
As to `CCCCCCCCCCCCCCCC(=O)NCCO` [PALMIDROL], the IC50 was over 20 µM. For the same compound, for the setting “read-out: pIC50 (converted)”, the IC50 is over 20 µM.
Compound `C=C(C)[C@@H]1CC[C@]2(C(=O)O)CC[C@]3(C)[C@H](CCC4[C@@]5(C)CC[C@@H](O)C(C)(C)C5CC[C@]43C)C12` (stereo partly specified) came in with an IC50 of over 20 µM. Further, the IC50 (read-out: pIC50 (converted)) was over 20 µM.
In the case of `CC(C(=O)O)c1ccc2c(c1)[nH]c1ccc(Cl)cc12` (stereo unspecified) [CARPROFEN], the IC50 was over 20 µM. Further, where the note is “read-out: pIC50 (converted)”, the IC50 was over 20 µM.
On to `CC(C)NCCCC1(C(N)=O)c2ccccc2-c2ccccc21` [INDECAINIDE], for which the IC50 was over 20 µM. Besides, the IC50 (read-out: pIC50 (converted)) was over 20 µM.
The compound `C=C1C/C(=C/C)C(=O)O[C@@H]2CCN3CC=C(COC(=O)[C@]1(C)O)[C@H]23` [SENECIPHYLLINE] returned an IC50 of over 20 µM. Also, the IC50 (read-out: pIC50 (converted)) is over 20 µM.
`O=C(O)c1ccc2c(c1)OCO2` [PIPERONYLIC ACID] came in with an IC50 of over 20 µM. The IC50 (read-out: pIC50 (converted)) is over 20 µM.
For `C[S+]([O-])c1ccc(-c2nc(-c3ccc(F)cc3)c(-c3ccncc3)[nH]2)cc1` (stereo unspecified) [SB-203580], the IC50 is over 20 µM. Further, the IC50 (read-out: pIC50 (converted)) was over 20 µM.
`CC(=O)Oc1ccc2c(c1)CCC1C2CCC2(C)C(O)CCC12` (stereo unspecified) returned an IC50 of over 20 µM. For the same compound, for the setting “read-out: pIC50 (converted)”, the IC50 was over 20 µM.
Regarding `NC(=O)c1[nH]nc([C@@H]2O[C@H](CO)[C@@H](O)[C@H]2O)c1O` [PYRAZOFURIN], the IC50 was over 20 µM. Further, the IC50 (read-out: pIC50 (converted)) was over 20 µM.
Compound `COC(=O)c1ccc2c(c1)NC(=O)/C2=C(\Nc1ccc(N(C)C(=O)CN2CCN(C)CC2)cc1)c1ccccc1` [NINTEDANIB] showed an IC50 of over 20 µM. Besides, the IC50 (read-out: pIC50 (converted)) was over 20 µM.
For `CCC(CC)[C@H](c1ccc(Nc2nc3ccccc3s2)cc1)n1cncn1`, the IC50 is over 20 µM. Where the note is “read-out: pIC50 (converted)”, the IC50 is over 20 µM.
For `Oc1ncnc2[nH]ncc12` [ALLOPURINOL], the IC50 was over 20 µM. Besides, the IC50 (read-out: pIC50 (converted)) is over 20 µM.
On to `O=C(/C=C/c1ccc(O)cc1)c1ccc(O)cc1O` [ISOLIQUIRITIGENIN], for which the IC50 is over 20 µM. For the same compound, the IC50 (read-out: pIC50 (converted)) is over 20 µM.
The compound `O=C1CN=C(c2ccccc2)c2cc(Cl)ccc2N1CC(F)(F)F` [HALAZEPAM] registered an IC50 of over 20 µM. Where the note is “read-out: pIC50 (converted)”, the IC50 was over 20 µM.
`CO[C@H]1C[C@H](O[C@H]2[C@H](C)[C@@H](O[C@@H]3O[C@H](C)C[C@H](N(C)C)[C@H]3O)[C@@H](C)C[C@@]3(CO3)C(=O)[C@H](C)[C@@H](O)[C@@H](C)[C@@H](C)OC(=O)[C@@H]2C)O[C@@H](C)[C@@H]1O` [OLEANDOMYCIN]: the IC50 was over 20 µM. For the same compound, for the setting “read-out: pIC50 (converted)”, the IC50 was over 20 µM.
The compound `CC(=O)OCC(=O)[C@@]1(O)CC[C@H]2[C@@H]3CCC4=CC(=O)CC[C@]4(C)[C@H]3[C@@H](O)C[C@@]21C` [HYDROCORTISONE ACETATE] showed an IC50 of over 20 µM. For the same compound, the IC50 (read-out: pIC50 (converted)) is over 20 µM.
`NCC(=O)O` [GLYCINE] registered an IC50 of over 20 µM. Further, the IC50 (read-out: pIC50 (converted)) is over 20 µM.
`CS(=O)(=O)c1ccc(-c2cnc(N)c(-c3ccc(C(F)(F)F)nc3)c2)cc1` [MMV-048] displayed an IC50 of over 20 µM. Besides, the IC50 (read-out: pIC50 (converted)) is over 20 µM.
Regarding `CC[C@H]1OC(=O)[C@H](C)[C@@H](O[C@H]2C[C@@](C)(OC)[C@@H](O)[C@H](C)O2)[C@H](C)[C@@H](O[C@@H]2O[C@H](C)C[C@H](N(C)C)[C@H]2O)[C@](C)(O)C[C@@H](C)[C@@H]2N[C@@H](COCCOC)O[C@H]([C@H]2C)[C@]1(C)O` [DIRITHROMYCIN], the IC50 is over 20 µM. For the same compound, the IC50 (read-out: pIC50 (converted)) was over 20 µM.
As to `NC(=O)Oc1ccc(Cc2ccccc2)cc1`, the IC50 is over 20 µM. Also, under “read-out: pIC50 (converted)”, the IC50 was over 20 µM.
`Cc1[nH]cnc1C[C@H]1CCc2c(C)c3ccccc3n2C1=O` [FABESETRON]: the IC50 was over 20 µM. Also, the IC50 (read-out: pIC50 (converted)) is over 20 µM.
Take `COC(=O)C1=COC(C)C2CN3CCC4(C(=O)Nc5ccccc54)C3CC12` (stereo unspecified): the IC50 was over 20 µM. Moreover, the IC50 (read-out: pIC50 (converted)) is over 20 µM.
For `CC1(C)CC[C@]2(C(=O)O)CC[C@]3(C)C(=CC[C@@H]4[C@@]5(C)CC[C@H](O)C(C)(C)[C@@H]5CC[C@]43C)[C@@H]2C1` [OLEANOLIC_ACID], the IC50 is over 20 µM. Besides, the IC50 (read-out: pIC50 (converted)) is over 20 µM.
The compound `CCOC(=O)c1ncc2[nH]c3cccc(OCc4ccccc4)c3c2c1COC` displayed an IC50 of over 20 µM. For the same compound, the IC50 (read-out: pIC50 (converted)) is over 20 µM.
With `NCC(O)c1cccc(O)c1` (stereo unspecified) [NORFENEFRINE], the IC50 was over 20 µM. For the same compound, the IC50 (read-out: pIC50 (converted)) was over 20 µM.
`NCCNCCNCCN` [TRIENTINE] registered an IC50 of over 20 µM. Further, the IC50 (read-out: pIC50 (converted)) was over 20 µM.
Take `CC1NC(=O)COC1c1ccccc1` (stereo unspecified) [FENMETRAMIDE]: the IC50 was over 20 µM. The IC50 (read-out: pIC50 (converted)) was over 20 µM.
For `C[N+]1(C)CCC(=C(c2ccccc2)c2ccccc2)CC1`, the IC50 is over 20 µM. Further, under “read-out: pIC50 (converted)”, the IC50 is over 20 µM.
Turning to `CN(CCO)CC(O)Cn1cnc2c1c(=O)n(C)c(=O)n2C` (stereo unspecified) [XANTHINOL], the IC50 was over 20 µM. Also, the IC50 (read-out: pIC50 (converted)) was over 20 µM.
In turn, `CC(=O)c1cc2c(o1)C(=O)c1ccccc1C2=O` [NAPABUCASIN] returned an IC50 of over 20 µM. The IC50 (read-out: pIC50 (converted)) is over 20 µM.
`COc1ccc(-c2nc(C(F)(F)F)[nH]c2-c2ccc(OC)cc2)cc1` [FLUMIZOLE]: the IC50 is over 20 µM. Further, the IC50 (read-out: pIC50 (converted)) was over 20 µM.
`O=c1cc2c(nn1-c1ccc(Cl)cc1)-c1ccccc1[S+]([O-])CC2` (stereo unspecified) registered an IC50 of over 20 µM. In addition, the IC50 (read-out: pIC50 (converted)) is over 20 µM.
Consider `NC1=NCC(CN2CCN(c3ccccc3)CC2)O1` (stereo unspecified), for which the IC50 is over 20 µM. Also, where the note is “read-out: pIC50 (converted)”, the IC50 is over 20 µM.
Compound `CCC(=O)O[C@](Cc1ccccc1)(c1ccccc1)[C@H](C)CN(C)C` [PROPOXYPHENE] showed an IC50 of over 20 µM. Under “read-out: pIC50 (converted)”, the IC50 was over 20 µM.
Compound `CC(=O)O[C@H]1CC[C@@]2(C)C(=CC[C@@H]3[C@@H]2CC[C@]2(C)C(=O)CC[C@@H]32)C1` [DEHYDROEPIANDROSTERONE ACETATE] yielded an IC50 of over 20 µM. The IC50 (read-out: pIC50 (converted)) is over 20 µM.
